The results in this text go back to patent publication US4365989A, “2-Thiocyanomethylthio-4,4-dialkyl-5-substituted-thiazoline fungicides” (Chevron Research Company, priority 1982, dated 1982).

The structures appear in SMILES notation.

The subject of one assay is Spirulina maxima. Briefly: Algae control, Spirulina. The note with it: Limnospira maxima, 7 to 10 days, read-out: Algicidal Activity % Control Spirulina. Type of assay: cell-based. Here is the method:
(§1) Representative compounds of the invention were tested as aquatic herbicides and algicides by the following method. The weed test species were Lemna minor, Elodea canadensis and the algae used was Spirulina maxima.
(§2) An acetone solution of the test compound and a small amount of an alkylarylpolyoxyethylene glycol-containing surfactant was prepared. This solution was mixed with a nutrient solution in quantity sufficient to give a concentration of 2 ppm. Eight oz. plastic cups were filled with 150 ml of this solution. A sample of the test, Lemna and Elodea, was added together to each cup. Forty ml of Spirulina culture with the 2 ppm treatment was placed in 11/2 oz plastic cups (#4 glass vials used after June 9, 1980). The containers were then placed in an illuminated environment maintained at a temperature of about 20° C. for incubation. The containers were observed periodically for growth (as compared to an untreated check). The effectiveness of the test compound was determined based on a final observation of growth after 7 to 10 days. The results of the test on a 0-to-100 basis--0 indicating no effectiveness and 100 indicating complete effectiveness--are reported in Table IV.

The test system of assay [1] is Lambsquarter (Chenopodium album). Briefly: Pre-emergent herbicidal test, Lambsquarter. Type of assay: in vivo. The note with it: 504 h, pre-emergence, 33 micrograms/cm^2, 3 weeks, read-out: Herbicidal Activity Pre-Emergence % Control L'Qtr. The procedure: (§3) An acetone solution of the test compound was prepared by mixing 750 mg of the compound, 220 mg of a nonionic surfactant and 25 ml of acetone. This solution was added to approximately 125 ml of water containing 156 mg of surfactant.
(§4) Seeds of the test vegetation were planted in a pot of […] and the test solution was sprayed uniformly onto the soil surface at a dose of 33 micrograms/cm^2. The pot was watered and placed in a greenhouse. […] At the end of this period, the herbicidal effectiveness of the compound was rated based on the physiological observations. A 0-to-100 scale was used, 0 representing no phytotoxicity, 100 representing complete kill.

In assay [2] the test system is Crabgrass (Digitaria sanguinalis). Briefly: Pre-emergent herbicidal test, Crabgrass. The note with it: 504 h, pre-emergence, 33 micrograms/cm^2, 3 weeks. Type of assay: in vivo. The procedure:
as §3, §4

The next assay relates to Fusarium Moniliforme. Nature of the assay: Mycelial inhibition, Fusarium. The settings on record: Fusarium verticillioides, 24 hours, relative to standard DIFOLATAN
Type of assay: cell-based. The procedure:
(§5) A number of the compounds of the present invention were evaluated for in-vitro fungicidal effectiveness by means of a mycelial inhibition test. This test is designed to measure the fungitoxic activity of fungicidal chemicals in terms of their degree of inhibition of mycelium growth. Each compound to be tested was dissolved in acetone to 500 ppm concentration. Paper strips were infused with the particular mycelium growth by covering the paper with a potato dextrose broth culture of mycelial suspension. The papers were then placed on potato dextrose agar plates and sprayed by means of a microsprayer with the fungicidal solution. The treated paper strips were incubated at 25° C. and the data is taken after 24 hours. Fungicidal activities are measured by a zone of inhibited mycelial growth from the center of the paper strip. The effectiveness of the compounds tested for fungicidal activity is reported in Table IIa for those compounds which were effective in inhibiting mycelial growth. The activity is reported in terms of [formula]

In assay [3] the test system is Lambsquarter (Chenopodium album). Briefly: Post-emergent herbicidal test, Lambsquarter. Type of assay: in vivo. The settings on record: 504 h, post-emergence, 33 micrograms/cm^2, 3 weeks, read-out: Herbicidal Activity Post-Emergence % Control L'Qtr.
The subject of assay [4] is Mustard (Brassica arvensis). Briefly: Post-emergent herbicidal test, Mustard. Type of assay: in vivo. The note with it: 504 h, post-emergence, 33 micrograms/cm^2, 3 weeks.
For assay [5], the system named is Watergrass (Ethinochloa crusgalli). Briefly: Pre-emergent herbicidal test, Watergrass. Type of assay: in vivo. The note with it: 504 h; pre-emergence; 33 micrograms/cm^2; 3 weeks. The procedure:
as §3, §4

A further assay deals with Rhizoctonia solani. Nature of the assay: Mycelial inhibition, Rhizoctonia. Type of assay: cell-based. The settings on record: 24 hours, relative to standard DIFOLATAN, read-out: Mycelial inhibition, % Standard, Rhizoc. The procedure: as §5
In a further assay the test system is Botrytis Cineria. Nature of the assay: Mycelial inhibition, Botrytis. Type of assay: cell-based. The settings on record: 24 hours, relative to standard DIFOLATAN
Here is the method: as §5

The test system of assay [6] is Watergrass (Ethinochloa crusgalli). Briefly: Post-emergent herbicidal test, Watergrass. Type of assay: in vivo. The note with it: 504 h; post-emergence; 33 micrograms/cm^2; 3 weeks.
Assay [7] deals with Pigweed (Amaranthus retraflexus). Briefly: Post-emergent herbicidal test, Pigweed. Type of assay: in vivo. The note with it: 504 h, post-emergence, 33 micrograms/cm^2, 3 weeks.
A further assay has as its system Elodea canadensis. Nature of the assay: Aquatic weeds control, Elodea. Type of assay: in vivo. The note with it: 7 to 10 days, read-out: Algicidal Activity % Control Elodea. The procedure:
as §1, §2

Assay [8] concerns Pigweed (Amaranthus retraflexus). Nature of the assay: Pre-emergent herbicidal test, Pigweed. Type of assay: in vivo. The settings on record: 504 h, pre-emergence, 33 micrograms/cm^2, 3 weeks. The procedure:
as §3, §4

The subject of assay [9] is Soybean. Nature of the assay: Post-emergent herbicidal test, Soybean. Type of assay: in vivo. The settings on record: Glycine max, 504 h; post-emergence; 33 micrograms/cm^2; 3 weeks; read-out: Herbicidal Activity Post-Emergence % Control Soybean.
A further assay deals with Aspergillus Niger. Briefly: Mycelial inhibition, Aspergillus. Type of assay: cell-based. The note with it: 24 hours, relative to standard DIFOLATAN, read-out: Mycelial inhibition, % Standard, Asper. Here is the method: as §5
For another assay, the system named is Lemna minor. Briefly: Aquatic weeds control, Lemna. Type of assay: in vivo. The settings on record: 7 to 10 days, read-out: Algicidal Activity % Control Lemna. The procedure:
as §1, §2

Assay [10] concerns Crabgrass (Digitaria sanguinalis). Briefly: Post-emergent herbicidal test, Crabgrass. Type of assay: in vivo. The note with it: 504 h, post-emergence, 33 micrograms/cm^2, 3 weeks.
The subject of assay [11] is Soybean. Nature of the assay: Pre-emergent herbicidal test, Soybean. Type of assay: in vivo. The settings on record: Glycine max, 504 h; pre-emergence; 33 micrograms/cm^2; 3 weeks; read-out: Herbicidal Activity Pre-Emergence % Control Soybean. The procedure: as §3, §4

As usually defined, the inhibition is the relative decrease from the control value, in per cent. As for `CC1(C)N=C(SCSC#N)SC1=CSc1ccc(Cl)cc1` [Compound 1, 2-thiocyanomethylthio-4,4-dimethyl-5-(4-chlorophenylthio)methylenethiazoline], the activity at 2 ppm in the assay on Spirulina maxima, in the assay on Elodea canadensis and in the assay with Lemna minor was 0% in each case. Moreover, the pest or weed control at 33 µg/cm2 in assay [1], in assay [2], in [3], in assay [4], in [5] and in [6] was 0% throughout. For the same compound, the pest or weed control at 33 µg/cm2 in assay [7], in assay [8] and in assay [10] was 0% throughout. Moreover, the inhibition at 500 ppm in the assay on Fusarium Moniliforme, with Rhizoctonia solani, with Botrytis Cineria and with Aspergillus Niger was 0% in each case. Besides, the plant injury at 33 µg/cm2 with Soybean [9] and with Soybean [11] was 0% throughout.

`CC1(C)N=C(SCSC#N)SC1=C(Cl)Cl` [Compound 2, 2-thiocyanomethylthio-4,4-dimethyl-5-dichloromethylenethiazoline]: the values for the activity at 2 ppm with Spirulina maxima, with Elodea canadensis and in the assay on Lemna minor were 45%, 70% and 50%, respectively. The pest or weed control at 33 µg/cm2 in [1] turned out to be 0%; in assay [2], 0%; in [3], 40%; in assay [4] it was 63%; in [5] it was 0%; in assay [6], 45%. In addition, the pest or weed control at 33 µg/cm2 worked out at 55% in [7], 0% in assay [8] and 25% in assay [10]. Also, the inhibition at 500 ppm stood at 29% with Fusarium Moniliforme, 71% in the assay with Rhizoctonia solani, 32% with Botrytis Cineria and 107% in the assay with Aspergillus Niger. For the same compound, the values for the plant injury at 33 µg/cm2 with Soybean [9] and in the assay on Soybean [11] were 10% and 0%, respectively.

`CCC1(CC)N=C(SCSC#N)SC1=CBr` [Compound 5, 2-thiocyanomethylthio-4,4-diethyl-5-bromo-methylenethiazoline]: the activity at 2 ppm with Spirulina maxima was determined as 40%; with Elodea canadensis, 55%; with Lemna minor it was 0%. In addition, the pest or weed control at 33 µg/cm2 in assay [1] stood at 0%; in assay [2], 0%; in [3] it was 33%; in assay [4] it was 35%; in assay [5] it was 0%; in assay [6], 58%. Also, the pest or weed control at 33 µg/cm2 in assay [7] stood at 35%; in [8], 0%; in [10] it was 30%. Also, the inhibition at 500 ppm is 0% in the assay on Fusarium Moniliforme, 82% in the assay on Rhizoctonia solani, 0% in the assay on Botrytis Cineria and 50% in the assay with Aspergillus Niger. Moreover, the plant injury at 33 µg/cm2 in the assay with Soybean [9] is 20%; with Soybean [11], 0%.

Regarding `C=C1SC(SCSC#N)=NC1(CC)CC` [Compound 6, 2-thiocyanomethylthio-4,4-diethyl-5-methylenethiazoline], the activity at 2 ppm came out at 75% in the assay on Spirulina maxima, 0% with Elodea canadensis and 0% with Lemna minor. The pest or weed control at 33 µg/cm2 in assay [1] was 73%; in assay [2], 0%; in assay [3] it was 55%; in [4] it was 35%; in assay [5] it was 0%; in assay [6], 35%. Further, the pest or weed control at 33 µg/cm2 in assay [7] is 35%; in assay [8], 73%; in [10], 45%. Also, the inhibition at 500 ppm in the assay with Fusarium Moniliforme came to 31%; with Rhizoctonia solani it was 89%; with Botrytis Cineria it was 30%; in the assay with Aspergillus Niger, 77%. In addition, the plant injury at 33 µg/cm2 in the assay on Soybean [9] was found to be 15%; in the assay on Soybean [11], 30%.

As to `C=C1SC(SCSC#N)=NC1(C)C` [Compound 7, 2-Thiocyanomethylthio-4,4-dimethyl-5-methylenethiazoline], the activity at 2 ppm in the assay on Spirulina maxima is 90%; in the assay with Elodea canadensis, 85%; in the assay with Lemna minor it was 90%. Moreover, the pest or weed control at 33 µg/cm2 in assay [1] was determined as 60%; in [2], 0%; in assay [3] it was 55%; in [4], 50%; in [5], 0%; in assay [6], 22%. Besides, the pest or weed control at 33 µg/cm2 in assay [7] came out at 35%; in assay [8], 50%; in assay [10] it was 35%. The inhibition at 500 ppm in the assay with Fusarium Moniliforme was determined as 32%; in the assay on Rhizoctonia solani, 39%; in the assay with Botrytis Cineria, 82%; with Aspergillus Niger it was 32%. In addition, the plant injury at 33 µg/cm2 in the assay on Soybean [9] stood at 0%; with Soybean [11] it was 45%.
